How the values were obtained:
human LXRβ = target: T1, human LXRβ (Homo sapiens, UniProt P55055); assay: cell-based
T1 sequence (P55055 219-460): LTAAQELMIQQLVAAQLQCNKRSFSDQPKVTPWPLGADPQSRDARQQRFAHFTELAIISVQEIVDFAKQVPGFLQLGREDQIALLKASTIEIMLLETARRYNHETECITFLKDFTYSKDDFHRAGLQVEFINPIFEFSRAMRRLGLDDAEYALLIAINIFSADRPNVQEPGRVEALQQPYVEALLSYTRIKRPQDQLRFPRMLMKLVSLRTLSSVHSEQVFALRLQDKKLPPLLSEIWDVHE

ABCA1 = assay: qRT-PCR of ABCA1 in peritoneal macrophages isolated from exposed C57BL/6 mice; format: in vivo, mouse; settings: 200 mg/kg BW oral gavage for 7 d, control set to 1, p<0.01
Method: Total RNA was isolated from RAW264.7 cells and mouse peritoneal macrophages using TRIzol reagent according to the manufacturer’s instructions. Then a Nanovue Plus™ spectrophotometer (GE Healthcare Life Science) was used to analyze the concentration, quality, and purity of the RNA. Total RNA ( 1μg ) was mixed with oligo deoxythymine (dT) ( 1μL ) at 70°C for 5 min and then combined with a mixture containing Moloney murine leukemia virus (MMLV) reverse transcriptase ( 1μL ), deoxy-ribonucleoside triphosphate (dNTP) ( 1.25μL ), Recombinant RNasin® Ribonuclease Inhibitor (Promega) ( 0.65μL ), and MMLV buffer ( 5μL ) at 42°C for 60 min. The SYBR® Green PCR Kit (TOYOBO) was used for RT-PCR analysis. Real-time fluorescence detection was performed using the StepOnePlus™ sequence detection system (Applied Biosystems). […]
All experiments related to animals were approved by the institutional animal care and use committee of Peking University and followed the guidelines for animal experiments of the university as well as for experimental animals in China. […] Body weight (BW) was measured every week during the dosing period. […] Considering that this study assessed the effects of short-term exposure to TPHP, whereas humans are exposed to TPHP over a lifelong period, the present study used exposure doses that were higher than that of human exposure from house dust. […]

[1] = test system: human primary preadipocytes; parameters: method as in Tung et al. 2017; settings: ref Tung et al. 2017; cited from earlier work
RAW264.7 macrophages = assay: CellTiter-Glo Luminescent Cell Viability Assay; format: cell-based; settings: 24-h exposure at 1–20,000 nM
Method: RAW264.7 cells were obtained from the National Infrastructure of Cell Line Resource of Beijing, China, and the cells used for the experiment were cultured for at least three passages. Dulbecco’s Modified Eagle’s Medium (DMEM)-F12 medium containing 10% fetal bovine serum (FBS) was employed to culture the RAW264.7 cells. RAW264.7 cells were incubated at 37°C with 5% carbon dioxide. The RAW264.7 cells were plated at 2.5×10^5 cells/well (6-well plates), 6.0×10^4 cells/well (24-well plates), and 10^4 cells/well (96-well plates). The RAW264.7 cells were plated and grown overnight; then the medium was removed and fresh DMEM-F12 contained with 0.1% DMSO (control; n=3 ) or TPHP at the concentrations of 1–20,000 nM ( n=3 per group) was added. […] Then the cells were used for the quantitative reverse transcription (qRT)-PCR, cellular cholesterol efflux assay, and foam cell formation experiment.
Cell viability was assessed using the CellTiter-Glo® Luminescent Cell Viability Assay based on the manufacturer’s instructions ( n=3 per group). Luminescence was assessed using an LB 941 TriStar multimode microplate reader (Berthold Technologies).

O=P(Oc1ccccc1)(Oc1ccccc1)Oc1ccccc1 [TPHP, triphenyl phosphate]
IC50 (human LXRβ): 0.762 µM
ABCA1 gene expression in peritoneal macrophages relative to control (ABCA1): 0.51±0.07 fold
Adipogenesis [1]: promote adipogenesis
Cell viability (RAW264.7 macrophages): no significant loss of cell viability

— PMC6927504, “Screening of House Dust from Chinese Homes for Chemicals with Liver X Receptors Binding Activities and Characterization of Atherosclerotic Activity Using an in Vitro Macrophage Cell Line and ApoE^−/− Mice” (Environmental Health Perspectives, 2019)
